Source: ChEMBL document CHEMBL1121647, “Synthesis and antiviral properties of (Z)-5-(2-bromovinyl)-2'-deoxyuridine” (1981)
≈ marks a conversion by molar mass, not a printed value.

Tested on: Vaccinia virus
Assay: Minimum inhibitory concentration required to reduce vaccinia virus-induced cytopathogenicity in primary rabbit kidney cell cultures
Type: functional
Conditions: Orthopoxvirus vaccinia

## O=c1[nH]c(=O)n([C@H]2C[C@H](O)[C@@H](CO)O2)cc1I [IDOXURIDINE]
  MIC: 0.1 µg/mL (≈ 0.282 µM)

## O=c1[nH]c(=O)n([C@H]2C[C@H](O)[C@@H](CO)O2)cc1/C=C/Br [BRIVUDINE]
  MIC: 4 µg/mL (≈ 12 µM)

## O=c1[nH]c(=O)n([C@H]2C[C@H](O)[C@@H](CO)O2)cc1/C=C\Br
  MIC: 4 µg/mL (≈ 12 µM)
